The record followed here is paper PMC12021657, “Rapid traversal of vast chemical space using machine learning-guided docking screens” (Nature Computational Science, 2025).

In general, Ki refers to the dissociation constant of the complex between target and ligand, obtained from inhibition or displacement.

The target in one test is T1, Human A2AR (Homo sapiens, UniProt P29274).
T1 construct: expressed in transfected cells; host or cells: HeLa-A2A cell line (membranes prepared in house, lot A003/14-04-2019)
The experiment in a line: Human A2AR competition radioligand binding ([3H]-ZM241385, HeLa-A2A membranes). The note with it: xlsx sheet A2AR_Displacement, read-out: Ki (A2AR) printed in column Displacement at 20 uM (%). The procedure:
(§1) Screening compounds (Supplementary Tables 10 and 12) were purchased from Enamine (compound purity >90%, which was confirmed by liquid chromatography−mass spectrometry and ^1H NMR spectroscopy for identified ligands; Supplementary Figs. 19–30). Human D2R competition binding experiments were carried out in polypropylene 96-well plates. Each well contained 20 µg of membranes from a CHO-D2R #S20 cell line (protein concentration of 4,322 µg ml^−1), 1.5 nM [^3H]-spiperone (54.3 Ci mmol^−1, 1 mCi ml^−1, PerkinElmer NET1187250UC) and the compound studied. Non-specific binding was determined in the presence of 10 µM sulpiride (Sigma Aldrich S8010). The reaction mixture (250 µl per well) was incubated at 25 °C for 120 min, after which 200 µl was transferred to a GF/C 96-well plate (Millipore) pretreated with 0.5% PEI and treated with binding buffer (50 mM Tris-HCl, 1 mM EDTA, 5 mM MgCl2, 5 mM KCl, 120 mM NaCl, pH 7.4). The reaction mixture was filtered and washed 4 times with 250 µl wash buffer (50 mM Tris-HCl, 0.9% NaCl, pH 7.4) before the addition of 30 μl Universol. The final measurement was performed in a microplate beta scintillation counter (Microbeta Trilux, PerkinElmer). Human A2AR competition binding experiments were carried out in a multiscreen GF/C 96-well plate (Millipore) pretreated with binding buffer (Tris-HCl 50 mM, EDTA 1 mM, MgCl2 10 mM, 2 U ml^−1 adenosine deaminase, pH 7.4). Each well was incubated with 5 μg of membranes from the HeLa-A2A cell line and prepared in our laboratory (lot A003/14-04-2019, protein concentration 2,058 μg ml^−1), 1 nM [^3H]-ZM241385 (50 Ci mmol^−1, 1 mCi ml^−1, ARC-ITISA 0884), and the compounds studied and standards. Non-specific binding was determined in the presence of NECA 50 μM (Sigma E2387). The reaction mixture (total volume of 200 μl per well) was incubated at 25 °C for 30 min, then filtered and washed 4 times with 250 μl wash buffer (Tris-HCl 50 mM, EDTA 1 mM, MgCl2 10 mM, pH 7.4), and measured in a microplate beta scintillation counter (Microbeta Trilux, PerkinElmer). Unless stated otherwise, three independent experiments were carried out to calculate Ki values.

The target of the next test is T2, Human D2R (Homo sapiens, UniProt P14416).
T2 construct: expressed in transfected cells
The test can be described thus: Human D2R competition radioligand binding ([3H]-spiperone, CHO-D2R #S20 membranes). Conditions: 10 µM compound, mean ± SEM of two technical replicates; for inhibition at 10 µM: 2 h, read-out: D2R radioligand displacement at 10 µM (%). Here is the method:
as §1

T2 sequence (P14416 whole entry): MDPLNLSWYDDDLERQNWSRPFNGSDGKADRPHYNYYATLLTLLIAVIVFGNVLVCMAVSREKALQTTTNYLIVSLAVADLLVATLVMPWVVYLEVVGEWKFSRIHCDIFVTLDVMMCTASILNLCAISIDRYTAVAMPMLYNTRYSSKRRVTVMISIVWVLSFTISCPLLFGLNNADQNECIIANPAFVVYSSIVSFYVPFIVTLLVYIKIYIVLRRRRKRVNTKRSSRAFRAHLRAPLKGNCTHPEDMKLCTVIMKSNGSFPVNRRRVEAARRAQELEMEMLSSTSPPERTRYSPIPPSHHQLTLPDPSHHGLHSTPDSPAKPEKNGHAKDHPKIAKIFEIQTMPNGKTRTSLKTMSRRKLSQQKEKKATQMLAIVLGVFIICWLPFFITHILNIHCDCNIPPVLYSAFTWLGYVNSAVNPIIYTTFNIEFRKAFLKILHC
T1 sequence (P29274 whole entry): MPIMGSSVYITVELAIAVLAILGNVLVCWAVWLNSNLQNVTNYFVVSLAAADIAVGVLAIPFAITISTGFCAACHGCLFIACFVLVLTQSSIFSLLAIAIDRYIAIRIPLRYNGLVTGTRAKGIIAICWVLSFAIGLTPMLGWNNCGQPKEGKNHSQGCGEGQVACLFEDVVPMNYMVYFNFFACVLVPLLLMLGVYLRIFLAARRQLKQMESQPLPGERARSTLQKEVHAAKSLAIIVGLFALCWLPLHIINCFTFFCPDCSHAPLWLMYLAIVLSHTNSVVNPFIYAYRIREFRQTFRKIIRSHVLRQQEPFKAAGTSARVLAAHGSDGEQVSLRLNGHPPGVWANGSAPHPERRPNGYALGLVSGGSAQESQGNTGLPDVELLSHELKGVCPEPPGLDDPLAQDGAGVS

Regarding `Cc1cccc(CC(N)C(=O)Nc2nc3c(Br)cc(F)cc3[nH]2)c1` (stereo not shown) [Compound 3, Cc1cccc(c1)CC(C(=O)Nc2[nH]c3cc(cc(c3n2)Br)F)N], the inhibitory constant (Ki) at Human A2AR came to 2.5 µM.
Turning to `O=C(CN1CC[C@H](Oc2ccccc2)C1)c1c[nH]c2nc(Cl)ccc12` [Compound 4, c1ccc(cc1)O[C@H]2CCN(C2)CC(=O)c3c[nH]c4c3ccc(n4)Cl], the Ki at Human A2AR came out at 1.4 µM.
In the case of `FC(F)(F)c1ccnc(N2CCN(C3CCC3)CC2)c1` [Z1348398263, c1cnc(cc1C(F)(F)F)N2CCN(CC2)C3CCC3], at Human D2R, the “D2R radioligand displacement at 10 µM (%)” value turned out to be 5 ± 3% and the inhibition at 10 µM is 5 ± 3%.
On to `c1ccc([C@H]2C[C@H](NCc3ccccc3-n3cccn3)C2)cc1` [Z1973963178, c1ccc(cc1)[C@H]2C[C@@H](C2)NCc3c(cccc3)n4nccc4], for which, on Human D2R, the “D2R radioligand displacement at 10 µM (%)” value came to 1 ± 2% and the inhibition at 10 µM stood at 1 ± 2%.
For the molecule `OC(Cc1cccc(Cl)c1)CN1CCC=C(c2ccco2)C1` (stereo not shown) [Z2102774071, c1cc(cc(c1)Cl)CC(CN2CCC=C(C2)c3ccco3)O], at Human D2R, the “D2R radioligand displacement at 10 µM (%)” value was 10 ± 3% and the inhibition at 10 µM was determined as 10 ± 3%.
`Fc1ccc([C@H]2C[C@H](NCc3cnn(-c4ccccc4)n3)C2)cc1` [Z2213086620, c1ccc(cc1)n2nc(cn2)CN[C@H]3C[C@@H](C3)c4ccc(cc4)F]: at Human D2R, the “D2R radioligand displacement at 10 µM (%)” value worked out at 27 ± 1% and the inhibition at 10 µM stood at 27 ± 1%.
`Cn1cc(-c2ccc(CN3CC[C@@H](Oc4ccccc4)C3)s2)cn1` [Z2629646171, Cn1cc(cn1)c2ccc(s2)CN3CC[C@H](C3)Oc4ccccc4]: at Human D2R, the “D2R radioligand displacement at 10 µM (%)” value turned out to be 7 ± 1% and the inhibition at 10 µM worked out at 7 ± 1%.
As to `c1csc(CCN2CCC(Oc3ccc(C4CC4)cn3)C2)c1` (stereo not shown) [Z2694200197, c1cc(sc1)CCN2CCC(C2)Oc3ccc(cn3)C4CC4], at Human D2R, the “D2R radioligand displacement at 10 µM (%)” value came out at 17 ± 4% and the inhibition at 10 µM stood at 17 ± 4%.
For the molecule `c1cnc(CCN2CCC(c3cn[nH]c3)CC2)cn1` [Z2833584438, c1cnc(cn1)CCN2CCC(CC2)c3c[nH]nc3], on Human D2R, the “D2R radioligand displacement at 10 µM (%)” value is 1 ± 1% and the inhibition at 10 µM came to 1 ± 1%.
In the case of `c1ccc(NC2CCN(Cc3cccc4ncnn34)C2)cc1` (stereo not shown) [Z3310096494, c1ccc(cc1)NC2CCN(C2)Cc3cccc4n3ncn4], at Human D2R, the “D2R radioligand displacement at 10 µM (%)” value was 1 ± 2% and the inhibition at 10 µM worked out at 1 ± 2%.
As to `Cc1[nH]cnc1CN1CCC(Oc2cc(F)cc(F)c2)C1` (stereo not shown) [Z3516846214, Cc1c(nc[nH]1)CN2CCC(C2)Oc3cc(cc(c3)F)F], on Human D2R, the “D2R radioligand displacement at 10 µM (%)” value is listed as 5 ± 1% and the inhibition at 10 µM was found to be 5 ± 1%.
As for `Cc1cc(CC(O)CN2CCc3c(ncn3C3CCC3)C2)ccc1F` (stereo not shown) [Z3516919089, Cc1cc(ccc1F)CC(CN2CCc3c(ncn3C4CCC4)C2)O], at Human D2R, the “D2R radioligand displacement at 10 µM (%)” value was 1 ± 1% and the inhibition at 10 µM came to 1 ± 1%.
As to `Clc1nc2c(cc1CN1CC[C@@H](Oc3ccccc3)C1)COCC2` [Z3529190238, c1ccc(cc1)O[C@@H]2CCN(C2)Cc3cc4c(nc3Cl)CCOC4], on Human D2R, the “D2R radioligand displacement at 10 µM (%)” value amounted to 1 ± 1% and the inhibition at 10 µM was determined as 1 ± 1%.
Consider `c1ccc(C2CC(NCc3cc4ncccc4[nH]3)C2)cc1` (stereo not shown) [Z3532611366, c1ccc(cc1)C2CC(C2)NCc3cc4c([nH]3)cccn4], for which, at Human D2R, the “D2R radioligand displacement at 10 µM (%)” value stood at 24 ± 1% and the inhibition at 10 µM was found to be 24 ± 1%.
Turning to `OC(CN1CCC(n2ncc3ccccc32)CC1)c1cccc(Cl)n1` (stereo not shown) [Z3651347041, c1ccc2c(c1)cnn2C3CCN(CC3)CC(c4cccc(n4)Cl)O], at Human D2R, the “D2R radioligand displacement at 10 µM (%)” value stood at 28 ± 1% and the inhibition at 10 µM is 28 ± 1%.
Regarding `Clc1cccc(CCN2CC(c3ncnc4ccccc34)C2)c1` [Z3806926084, c1ccc2c(c1)c(ncn2)C3CN(C3)CCc4cccc(c4)Cl], at Human D2R, the “D2R radioligand displacement at 10 µM (%)” value was found to be 4 ± 1% and the inhibition at 10 µM was 4 ± 1%.
Take `Brc1ccn2c(CN[C@H]3C[C@H](Oc4ccccc4)C3)cnc2c1` [Z8185092056, c1ccc(cc1)O[C@H]2C[C@@H](C2)NCc3n4c(nc3)cc(cc4)Br]: on Human D2R, the “D2R radioligand displacement at 10 µM (%)” value is on record as 2 ± 2% and the inhibition at 10 µM was 2 ± 2%.
For the molecule `Cc1ccccc1-n1cc(CNC2COc3ccccc3C2)cn1` (stereo not shown) [Z8185092078, Cc1ccccc1n2cc(cn2)CNC3Cc4ccccc4OC3], on Human D2R, the “D2R radioligand displacement at 10 µM (%)” value is recorded as 3 ± 1% and the inhibition at 10 µM is 3 ± 1%.
Take `Cc1cccc(CN[C@H]2C[C@H](Oc3ccccc3)C2)c1F` [Z8185092308, Cc1c(c(ccc1)CN[C@H]2C[C@@H](C2)Oc3ccccc3)F]: at Human D2R, the “D2R radioligand displacement at 10 µM (%)” value amounted to 6 ± 2% and the inhibition at 10 µM was 6 ± 2%.
As for `Cc1ccc(C(O)CN2CCC3(Cc4ccccc4C3)C2)c(C)c1` (stereo not shown) [Z8185092353, Cc1ccc(c(c1)C)C(CN2CCC3(C2)Cc4ccccc4C3)O], at Human D2R, the “D2R radioligand displacement at 10 µM (%)” value is reported as 4 ± 3% and the inhibition at 10 µM turned out to be 4 ± 3%.
As for `Fc1ccc(O[C@H]2CCN(Cc3cnc4ccc(Br)cn34)C2)cc1` [Z8185092492, c1cc(ccc1O[C@H]2CCN(C2)Cc3cnc4n3cc(cc4)Br)F], at Human D2R, the “D2R radioligand displacement at 10 µM (%)” value is on record as 5 ± 3% and the inhibition at 10 µM came out at 5 ± 3%.
Turning to `Cc1ccc(C2CC(NCCn3ncc4ccccc43)C2)cc1` (stereo not shown) [Z8185092514, Cc1ccc(cc1)C2CC(C2)NCCn3c4ccccc4cn3], at Human D2R, the “D2R radioligand displacement at 10 µM (%)” value worked out at 23 ± 1% and the inhibition at 10 µM was found to be 23 ± 1%.
Regarding `Cc1ccc(CCN2C[C@@H]3CN(C(=O)c4cn5c(n4)CC(C)CC5)C[C@@H]3C2)cc1` (stereo partly shown) [Z8185092530, Cc1ccc(cc1)CCN2C[C@@H]3CN(C[C@@H]3C2)C(=O)c4cn5c(n4)CC(CC5)C], at Human D2R, the “D2R radioligand displacement at 10 µM (%)” value turned out to be 1 ± 2% and the inhibition at 10 µM was 1 ± 2%.
As for `Clc1cnn(CCN2CCC(OCc3ccc(Br)cc3)CC2)c1` [Z8185092665, c1cc(ccc1COC2CCN(CC2)CCn3cc(cn3)Cl)Br], at Human D2R, the “D2R radioligand displacement at 10 µM (%)” value is 4 ± 1% and the inhibition at 10 µM is 4 ± 1%.
Take `Clc1ccc(C2CN=C(NCc3cc(OC4CCC4)ccn3)N2)cc1` (stereo not shown) [Z8185092666, c1cc(ccc1C2CN=C(N2)NCc3cc(ccn3)OC4CCC4)Cl]: on Human D2R, the “D2R radioligand displacement at 10 µM (%)” value is 24 ± 1% and the inhibition at 10 µM was 24 ± 1%.
As to `c1ccc(CC2CN(Cc3cc4ncccc4s3)C2)cc1` [Z8185092667, c1ccc(cc1)CC2CN(C2)Cc3cc4c(s3)cccn4], on Human D2R, the “D2R radioligand displacement at 10 µM (%)” value came out at 12 ± 3% and the inhibition at 10 µM amounted to 12 ± 3%.
As to `O[C@@H](CN1CCc2cc(Br)sc2C1)c1ccccc1F` [Z8185092668, c1ccc(c(c1)[C@H](CN2CCc3cc(sc3C2)Br)O)F], on Human D2R, the “D2R radioligand displacement at 10 µM (%)” value turned out to be 3 ± 1% and the inhibition at 10 µM is 3 ± 1%.
Regarding `c1ccc(C2CN=C(NCCc3cn4c(n3)CCCC4)N2)cc1` (stereo not shown) [Z8185092671, c1ccc(cc1)C2CN=C(N2)NCCc3cn4c(n3)CCCC4], at Human D2R, the “D2R radioligand displacement at 10 µM (%)” value was found to be 5 ± 2% and the inhibition at 10 µM is 5 ± 2%.
On to `Fc1cccc2nc(CNCc3ccccc3-n3cccn3)sc12` [Z8185092672, c1ccc(c(c1)CNCc2nc3cccc(c3s2)F)n4cccn4], for which, on Human D2R, the “D2R radioligand displacement at 10 µM (%)” value amounted to 2 ± 1% and the inhibition at 10 µM stood at 2 ± 1%.
Regarding `CC(C)(C)c1c[nH]c(CN2CCC(Cc3nccs3)C2)n1` (stereo not shown) [Z8185092674, CC(C)(C)c1c[nH]c(n1)CN2CCC(C2)Cc3nccs3], on Human D2R, the “D2R radioligand displacement at 10 µM (%)” value turned out to be 2 ± 3% and the inhibition at 10 µM is 2 ± 3%.
